Values of other authors as cited in patent US20040208936A1, “Novel compositions” (priority 2002, published 2004).
In brackets after ≈: the same amount, converted by molar mass.

Test system: S pneumoniae
Conditions: some 10% of pneumococci

MIC: 2 µg/mL (≈ 5.47 µM)
SMILES: CC1(C)S[C@@H]2[C@H](NC(=O)[C@H](N)c3ccc(O)cc3)C(=O)N2[C@H]1C(=O)O [Amoxicillin]
